Test results taken from patent US6664231B1, “Anti-fungal peptides” (priority 1993, dated 2003).
Square brackets hold non-standard residues; d marks the D form. Peptide text beside a SMILES is read from it. Phe(4-NH2) = Nc1ccc(C[C@H](N)C(=O)O)cc1; 1Nal = N[C@@H](Cc1cccc2ccccc12)C(=O)O; 2Nal = N[C@@H](Cc1ccc2ccccc2c1)C(=O)O; d1Nal = N[C@H](Cc1cccc2ccccc12)C(=O)O; d2Nal = N[C@H](Cc1ccc2ccccc2c1)C(=O)O; Cha = N[C@@H](CC1CCCCC1)C(=O)O

System: C. albicans (CA-1, Strain SLU-1)
Assay: Radial diffusion assay
Assay type: cell-based, Candida albicans
Conditions: for Plate Assay (nmol), pure peptide activity: HPLC-purified peptide; for Plate Assay (nmol), pure peptide activity / Plate Assay (nmol), crude peptide activity: nanomoles required to achieve a net 30 mm^2 zone (log titration curve); for C. albicans pmol/30 mm^2 zone: pmoles of peptide added to well to achieve a 30 mm^2 zone, PROBIT analysis, crude or purified (P′) peptide
Experimental: In the radial diffusion assay procedures, the CA-1 cultures and peptide solutions were prepared as in the broth assay procedure described above. Ten mL of molten underlayer agarose comprising 3% Sabouraud Dextrose broth, 1% agarose (Pharmacia, Piscataway, N.J.), 0.02% Tween 20, and 10 mM sodium phosphate at pH 7.4, was added to polystyrene tubes and maintained in a 56° C. water bath until the addition of yeast. Tubes were cooled to approximately 45° C., yeast were added to give a final concentration of 1×10^6 CFU/mL, and the tubes were mixed again by inverting. The contents were poured into level square petri dishes and distributed evenly. […] A series of wells were punched into the hardened agarose using a sterile 3 mm punch attached to a vacuum apparatus.
Peptides to be assayed were 2-fold serially diluted in Dulbecco's PBS (D-PBS) starting from a concentration of approximately 1 mg/mL. Five μL of each dilution were added to each well and the plates were incubated at 37° C. for 3 hours. An overlayer of 10 mL of molten agarose comprising 6% Sabouraud Dextrose broth, 1% agarose, and 10 mM sodium phosphate, pH 7.4, (at approximately 45° C.) was then added and plates were incubated overnight at 37° C. Following this overnight incubation, a dilute Coomassie solution was poured into the plates and allowed to stain for 24 hours.
Clear zones of growth inhibition around each well were measured with calipers. The actual area of growth inhibition (mm^2) was calculated by subtracting the area of the well. Table 1 below sets out the results of the radial diffusion assays for tested peptides in terms of the number of picomoles (pmol) of peptide required to establish a 30 mm^2 area of growth inhibition calculated by PROBIT analysis (e.g., calculated from regression of the linear portion of log-concentration dose-response curve, log pmol/well vs. net area of inhibition).

| Structure (SMILES) | Plate Assay (nmol), pure peptide activity [nmol] | Plate Assay (nmol), crude peptide activity [nmol] | C. albicans pmol/30 mm^2 zone [pmol/30 mm^2 zone] |
| --- | --- | --- | --- |
| CC[C@H](C)[C@H](NC(=O)[C@H](CC(C)C)NC(=O)[C@H](Cc1c[nH]c2ccccc12)NC(=O)[C@@H](N)CCCCN)C(=O)N[C@@H](CCC(N)=O)C(=O)N[C@@H](CC(C)C)C(=O)N[C@@H](Cc1ccccc1)C(=O)N[C@@H](Cc1c[nH]cn1)C(=O)N[C@@H](CCCCN)C(=O)N[C@@H](CCCCN)C(N)=O [Peptide 293] | 0.215 | 1.156 | – |
| CC[C@H](C)[C@H](NC(=O)[C@H](CC(C)C)NC(=O)[C@H](Cc1c[nH]c2ccccc12)NC(=O)[C@@H](N)CCCCN)C(=O)N[C@@H](CCC(N)=O)C(=O)N[C@@H](CC(C)C)C(=O)N[C@@H](Cc1ccccc1)C(=O)N[C@@H](Cc1c[nH]cn1)C(=O)N[C@@H](CCCCN)C(N)=O [Peptide 297] | 0.564 | 1.817 | – |
| CC[C@H](C)[C@H](NC(=O)[C@H](CC(C)C)NC(=O)[C@@H](N)Cc1c[nH]c2ccccc12)C(=O)N[C@@H](CCC(N)=O)C(=O)N[C@@H](CC(C)C)C(=O)N[C@@H](Cc1ccccc1)C(=O)N[C@@H](Cc1c[nH]cn1)C(=O)N[C@@H](CCCCN)C(=O)N[C@@H](CCCCN)C(N)=O [Peptide 298] | 1.106 | 2.628 | – |
| CC[C@H](C)[C@H](NC(=O)[C@H](CC(C)C)NC(=O)[C@@H](N)Cc1c[nH]c2ccccc12)C(=O)N[C@@H](CCC(N)=O)C(=O)N[C@@H](CC(C)C)C(=O)N[C@@H](Cc1ccccc1)C(=O)N[C@@H](Cc1c[nH]cn1)C(=O)N[C@@H](CCCCN)C(N)=O [Peptide 303] | 1.306 | >4.694 | – |
| CC[C@H](C)[C@H](NC(=O)[C@H](CC(C)C)NC(=O)[C@H](Cc1cccc2ccccc12)NC(=O)CNC(=O)[C@@H](NC(=O)[C@H](CCCCN)NC(=O)[C@H](CO)NC(=O)[C@@H](N)CCCCN)C(C)C)C(=O)N[C@@H](CCC(N)=O)C(=O)N[C@@H](CC(C)C)C(=O)N[C@@H](Cc1ccccc1)C(=O)N[C@@H](Cc1c[nH]cn1)C(=O)N[C@@H](CCCCN)C(=O)N[C@@H](CCCCN)C(N)=O [XMP.83] (H-KSKVG[1Nal]LIQLFHKK-NH2) | – | – | 1804 |
| CC[C@H](C)[C@H](NC(=O)[C@H](CC(C)C)NC(=O)[C@H](Cc1c[nH]c2ccccc12)NC(=O)CNC(=O)[C@@H](NC(=O)[C@H](CCCCN)NC(=O)[C@H](CO)NC(=O)[C@@H](N)CCCCN)C(C)C)C(=O)N[C@@H](CCC(N)=O)C(=O)N[C@@H](CC(C)C)C(=O)N[C@@H](Cc1cccc2ccccc12)C(=O)N[C@@H](Cc1c[nH]cn1)C(=O)N[C@@H](CCCCN)C(=O)N[C@@H](CCCCN)C(N)=O [XMP.109] (H-KSKVGWLIQL[1Nal]HKK-NH2) | – | – | >2839 |
| CC[C@H](C)[C@H](NC(=O)[C@H](CC(C)C)NC(=O)[C@H](Cc1c[nH]c2ccccc12)NC(=O)CNC(=O)[C@@H](NC(=O)[C@H](CCCCN)NC(=O)[C@H](CO)NC(=O)[C@@H](N)CCCCN)C(C)C)C(=O)N[C@@H](CCC(N)=O)C(=O)N[C@@H](CC(C)C)C(=O)N[C@@H](Cc1ccccc1)C(=O)N[C@@H](Cc1cccc2ccccc12)C(=O)N[C@@H](CCCCN)C(=O)N[C@@H](CCCCN)C(N)=O [XMP.110] (H-KSKVGWLIQLF[1Nal]KK-NH2) | – | – | >2922 |
| CC[C@H](C)[C@H](NC(=O)[C@H](CC(C)C)NC(=O)[C@H](Cc1c[nH]c2ccccc12)NC(=O)CNC(=O)[C@@H](NC(=O)[C@H](CCCCN)NC(=O)[C@H](CO)NC(=O)[C@@H](N)CCCCN)C(C)C)C(=O)N[C@@H](CCC(N)=O)C(=O)N[C@@H](CC(C)C)C(=O)N[C@@H](Cc1ccccc1)C(=O)N[C@@H](Cc1c[nH]cn1)C(=O)N[C@@H](CCCCN)C(=O)N[C@@H](Cc1cccc2ccccc12)C(N)=O [XMP.111] (H-KSKVGWLIQLFHK[1Nal]-NH2) | – | – | >2809 |
| CC[C@H](C)[C@H](NC(=O)[C@H](CC(C)C)NC(=O)[C@H](Cc1cccc2ccccc12)NC(=O)[C@H](CCCCN)NC(=O)[C@@H](NC(=O)[C@H](CCCCN)NC(=O)[C@H](CO)NC(=O)[C@@H](N)CCCCN)C(C)C)C(=O)N[C@@H](CCC(N)=O)C(=O)N[C@@H](CC(C)C)C(=O)N[C@@H](Cc1ccccc1)C(=O)N[C@@H](Cc1c[nH]cn1)C(=O)N[C@@H](CCCCN)C(=O)N[C@@H](CCCCN)C(N)=O [XMP.116] (H-KSKVK[1Nal]LIQLFHKK-NH2) | – | – | 670 |
| CC[C@H](C)[C@H](NC(=O)[C@H](CC(C)C)NC(=O)[C@H](Cc1c[nH]c2ccccc12)NC(=O)CNC(=O)[C@@H](NC(=O)[C@H](CCCCN)NC(=O)[C@H](CO)NC(=O)[C@@H](N)CCCCN)C(C)C)C(=O)N[C@@H](Cc1ccc(N)cc1)C(=O)N[C@@H](CC(C)C)C(=O)N[C@@H](Cc1ccccc1)C(=O)N[C@@H](Cc1c[nH]cn1)C(=O)N[C@@H](CCCCN)C(=O)N[C@@H](CCCCN)C(N)=O [XMP.123] (H-KSKVGWLI[Phe(4-NH2)]LFHKK-NH2) | – | – | 1721 |
| CC[C@H](C)[C@H](NC(=O)[C@H](CC(C)C)NC(=O)[C@@H](Cc1c[nH]c2ccccc12)NC(=O)CNC(=O)[C@@H](NC(=O)[C@H](CCCCN)NC(=O)[C@H](CO)NC(=O)[C@@H](N)CCCCN)C(C)C)C(=O)N[C@@H](CCC(N)=O)C(=O)N[C@@H](CC(C)C)C(=O)N[C@@H](Cc1ccccc1)C(=O)N[C@@H](Cc1c[nH]cn1)C(=O)N[C@@H](CCCCN)C(=O)N[C@@H](CCCCN)C(N)=O [XMP.126] (H-KSKVG[dW]LIQLFHKK-NH2) | – | – | 1404 |
| CC[C@H](C)[C@H](NC(=O)[C@H](CC(C)C)NC(=O)[C@@H](Cc1ccccc1)NC(=O)CNC(=O)[C@@H](NC(=O)[C@H](CCCCN)NC(=O)[C@H](CO)NC(=O)[C@@H](N)CCCCN)C(C)C)C(=O)N[C@@H](CCC(N)=O)C(=O)N[C@@H](CC(C)C)C(=O)N[C@@H](Cc1ccccc1)C(=O)N[C@@H](Cc1c[nH]cn1)C(=O)N[C@@H](CCCCN)C(=O)N[C@@H](CCCCN)C(N)=O [XMP.128] | – | – | 1179 |
| CC[C@H](C)[C@H](NC(=O)[C@H](CC(C)C)NC(=O)[C@@H](Cc1cccc2ccccc12)NC(=O)CNC(=O)[C@@H](NC(=O)[C@H](CCCCN)NC(=O)[C@H](CO)NC(=O)[C@@H](N)CCCCN)C(C)C)C(=O)N[C@@H](CCC(N)=O)C(=O)N[C@@H](CC(C)C)C(=O)N[C@@H](Cc1ccccc1)C(=O)N[C@@H](Cc1c[nH]cn1)C(=O)N[C@@H](CCCCN)C(=O)N[C@@H](CCCCN)C(N)=O [XMP.129] (H-KSKVG[d1Nal]LIQLFHKK-NH2) | – | – | 2117 |
| CC[C@H](C)[C@H](NC(=O)[C@H](CC(C)C)NC(=O)[C@H](Cc1ccc2ccccc2c1)NC(=O)CNC(=O)[C@@H](NC(=O)[C@H](CCCCN)NC(=O)[C@H](CO)NC(=O)[C@@H](N)CCCCN)C(C)C)C(=O)N[C@@H](CCC(N)=O)C(=O)N[C@@H](CC(C)C)C(=O)N[C@@H](Cc1ccccc1)C(=O)N[C@@H](Cc1c[nH]cn1)C(=O)N[C@@H](CCCCN)C(=O)N[C@@H](CCCCN)C(N)=O [XMP.130] (H-KSKVG[2Nal]LIQLFHKK-NH2) | – | – | 1159 |
| CC[C@H](C)[C@H](NC(=O)[C@H](CC(C)C)NC(=O)[C@@H](Cc1ccc2ccccc2c1)NC(=O)CNC(=O)[C@@H](NC(=O)[C@H](CCCCN)NC(=O)[C@H](CO)NC(=O)[C@@H](N)CCCCN)C(C)C)C(=O)N[C@@H](CCC(N)=O)C(=O)N[C@@H](CC(C)C)C(=O)N[C@@H](Cc1ccccc1)C(=O)N[C@@H](Cc1c[nH]cn1)C(=O)N[C@@H](CCCCN)C(=O)N[C@@H](CCCCN)C(N)=O [XMP.131] (H-KSKVG[d2Nal]LIQLFHKK-NH2) | – | – | 2493 |
| CC[C@H](C)[C@H](NC(=O)[C@H](CC(C)C)NC(=O)[C@H](Cc1c[nH]c2ccccc12)NC(=O)[C@H](Cc1ccc(N)cc1)NC(=O)[C@@H](NC(=O)[C@H](CCCCN)NC(=O)[C@H](CO)NC(=O)[C@@H](N)CCCCN)C(C)C)C(=O)N[C@@H](CCC(N)=O)C(=O)N[C@@H](CC(C)C)C(=O)N[C@@H](Cc1ccccc1)C(=O)N[C@@H](Cc1c[nH]cn1)C(=O)N[C@@H](CCCCN)C(=O)N[C@@H](CCCCN)C(N)=O [XMP.134] | – | – | 1255 |
| CC[C@H](C)[C@H](NC(=O)[C@H](CC(C)C)NC(=O)[C@H](CC1CCCCC1)NC(=O)CNC(=O)[C@@H](NC(=O)[C@H](CCCCN)NC(=O)[C@H](CO)NC(=O)[C@@H](N)CCCCN)C(C)C)C(=O)N[C@@H](CCC(N)=O)C(=O)N[C@@H](CC(C)C)C(=O)N[C@@H](Cc1ccccc1)C(=O)N[C@@H](Cc1c[nH]cn1)C(=O)N[C@@H](CCCCN)C(=O)N[C@@H](CCCCN)C(N)=O [XMP.144] (H-KSKVG[Cha]LIQLFHKK-NH2) | – | – | 695 |
